Assays:
[1] = target: T1, hEP4/Gqs5 (Homo sapiens, UniProt P35408); assay: FLIPR calcium signal, hEP4/Gqs5; assay type: cell-based; conditions: HEK-293 (EBNA) cells, read-out: FUNCTIONAL EC50 HEP4
T1 construct: expressed in transfected cells; host or cells: HEK-293 (EBNA)
Experimental: HEK-293 (EBNA) cells, stably expressing one type or subtype of recombinant human prostaglandin receptors (prostaglandin receptors expressed: hDP/Gqs5; hEP1; hEP2/Gqs5; hEP3A/Gqi5; hEP4/Gqs5; hFP; hIP; hTP), were cultured in 100 mm culture dishes in high-glucose DMEM medium containing 10% fetal bovine serum, 2 mM 1-glutamine, 250 μg/ml geneticin (G418) and 200 μg/ml hygromycin B as selection markers, and 100 units/ml penicillin G, 100 μg/ml streptomycin and 0.25 μg/ml amphotericin B. • (b) Calcium Signal Studies on the FLIPR™
Cells were seeded at a density of 5×10^4 cells per well in Biocoat® Poly-D-lysine-coated black-wall, clear-bottom 96-well plates (Becton-Dickinson) and allowed to attach overnight in an incubator at 37° C. Cells were then washed two times with HBSS-HEPES buffer (Hanks Balanced Salt Solution without bicarbonate and phenol red, 20 mM HEPES, pH 7.4) using a Denley Cellwash plate washer (Labsystems). After 45 minutes of dye-loading in the dark, using the calcium-sensitive dye Fluo-4 AM at a final concentration of 2 μM, plates were washed four times with HBSS-HEPES buffer to remove excess dye leaving 100 μl in each well. Plates were re-equilibrated to 37° C. for a few minutes.
Cells were excited with an Argon laser at 488 nm, and emission was measured through a 510–570 nm bandwidth emission filter (FLIPR™, Molecular Devices, Sunnyvale, Calif.). Drug solution was added in a 50 μl volume to each well to give the desired final concentration. The peak increase in fluorescence intensity was recorded for each well. On each plate, four wells each served as negative (HBSS-HEPES buffer) and positive controls (standard agonists: BW245C (hDP); PGE2 (hEP1; hEP2/Gqs5; hEP3A/Gqi5; hEP4/Gqs5); PGF2α (hFP); carbacyclin (hIP); U46619 (hTP), depending on receptor). The peak fluorescence change in each drug-containing well was then expressed relative to the controls.
Compounds were tested in a high-throughput (HTS) or concentration-response (CoRe) format. In the HTS format, forty-four compounds per plate were examined in duplicates at a concentration of 10^−5 M. To generate concentration-response curves, four compounds per plate were tested in duplicates in a concentration range between 10^−5 and 10^−11 M. The duplicate values were averaged. In either, HTS or CoRe format each compound was tested on at least 3 separate plates using cells from different passages to give an n≧3.

[2] = target: T2, HEP4 (Homo sapiens, UniProt P35408); assay: Radioligand binding, EP4 receptor; conditions: [3H]PGE2 5 nM, HEK-293 membranes
T2 construct: expressed in transfected cells; host or cells: HEK-293
T2 sequence (P35408 whole entry): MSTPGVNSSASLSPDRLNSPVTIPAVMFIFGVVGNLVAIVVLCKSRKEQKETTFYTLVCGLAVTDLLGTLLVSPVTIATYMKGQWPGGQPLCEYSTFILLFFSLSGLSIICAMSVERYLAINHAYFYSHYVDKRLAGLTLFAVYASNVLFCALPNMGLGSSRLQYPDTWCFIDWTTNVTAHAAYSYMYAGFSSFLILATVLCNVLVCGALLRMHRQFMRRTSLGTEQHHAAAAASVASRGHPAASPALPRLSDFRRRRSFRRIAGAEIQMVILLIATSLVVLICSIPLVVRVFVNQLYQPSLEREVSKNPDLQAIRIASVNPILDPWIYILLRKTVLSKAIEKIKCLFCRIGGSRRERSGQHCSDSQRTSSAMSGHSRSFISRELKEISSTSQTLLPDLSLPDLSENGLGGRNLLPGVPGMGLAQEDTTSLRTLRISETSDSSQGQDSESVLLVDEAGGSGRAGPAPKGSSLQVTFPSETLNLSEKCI
Experimental: HEK-293 cells stably expressing the human or feline FP receptor, or EP1, EP2, or EP4 receptors were washed with TME buffer, scraped from the bottom of the flasks, and homogenized for 30 sec using a Brinkman PT 10/35 polytron. TME buffer was added to achieve a final 40 ml volume in the centrifuge tubes (the composition of TME is 100 mM TRIS base, 20 mM MgCl2, […]; 10N HCl is added to achieve a pH of 7.4).
The cell homogenate was centrifuged at 19000 r.p.m. for 20 min at 4° C. using a Beckman Ti-60 rotor. The resultant pellet was resuspended in TME buffer to give a final 1 mg/ml protein concentration, as determined by Biorad assay. Radioligand binding competition assays vs. [^3H-]17-phenyl PGF2α (5 nM) were performed in a 100 μl volume for 60 min. Binding reactions were started by adding plasma membrane fraction. The reaction was terminated by the addition of 4 ml ice-cold TRIS-HCl buffer and rapid filtration through glass fiber GF/B filters using a Brandel cell harvester. The filters were washed 3 times with ice-cold buffer and oven dried for one hour. Non-specific binding was determined with 10 uM unlabeled 17-phenyl PGF2α.
[^3H-] PGE2 (5 nM; specific activity 180 Ci mmol) was used as the radioligand for EP receptors. Binding studies employing EP1, EP2, EP3, EP4 were performed in duplicate in at least three separate experiments. A 200 μl assay volume was used. Incubations were for 60 min at 25° C. and were terminated by the addition of 4 ml of ice-cold 50 mM TRIS-HCl, followed by rapid filtration through Whatman GF/B filters and three additional 4 ml washes in a cell harvester (Brandel). Non-specific binding determined with 10^−5M of unlabeled PGE2.

T1 sequence (P35408 whole entry): as above

Structure (SMILES)	EC50 [1] [nM]	IC50 [2] [nM]
O=C(O)CSCCCS[C@H]1C(=O)C[C@@H](CO)[C@@H]1/C=C/C(O)CCc1cc2ccccc2s1 (single isomer, unassigned) [drawing 31]	363	1300
O=C(O)CSCCCS[C@H]1C(=O)C[C@@H](CO)[C@@H]1/C=C/C(O)CCc1cc2ccccc2s1 (single isomer, unassigned) [drawing 32]	463	100
COC(=O)CSCCCS[C@H]1C(=O)C[C@@H](CO)[C@@H]1/C=C/C(O)CCc1ccc2ccccc2c1 (single isomer, unassigned) [drawing 38]	2340	1600
COC(=O)CSCCCS[C@H]1C(=O)C[C@@H](CO)[C@@H]1/C=C/C(O)Cc1ccccc1 (single isomer, unassigned) [drawing 42]	106	195
COC(=O)CSCCCS[C@H]1C(=O)C[C@@H](CO)[C@@H]1/C=C/C(O)Cc1ccccc1 (single isomer, unassigned) [drawing 43]	2090	1050
COC(=O)CSCCCS[C@H]1C(=O)CC[C@@H]1/C=C/C(O)Cc1ccccc1 (single isomer, unassigned) [drawing 45]	15	141
O=C(O)CSCCCS[C@H]1C(=O)C[C@@H](CO)[C@@H]1/C=C/C(O)Cc1ccccc1 (single isomer, unassigned) [drawing 50]	135	440
COC(=O)CSCCCS[C@H]1C(=O)CC[C@@H]1/C=C/C(O)CCc1cc2ccccc2s1 (stereo partly drawn) [drawing 27, {3-[(1R,2R)-2-((E)-5-Benzo[b]thiophen-2-yl-3-hydroxy-pent-1-enyl)-5-oxo-cyclopentylsulfanyl]-propylsulfanyl}-acetic acid methyl ester]	7.8	300
COC(=O)CSCCCS[C@H]1C(=O)C[C@@H](CO)[C@@H]1/C=C/C(O)CCc1cc2ccccc2s1 (stereo partly drawn) [drawing 29, {3-[(1R,2S,3R)-2-((E)-5-Benzo[b]thiophen-2-yl-3-hydroxy-pent-1-enyl)-3-hydroxymethyl-5-oxo-cyclopentylsulfanyl]-propylsulfanyl}-acetic acid methyl ester]	7940	2100
COC(=O)CSCCCS[C@H]1C(=O)C[C@@H](CO)[C@@H]1/C=C/C(O)CCc1cc2ccccc2s1 (stereo partly drawn) [drawing 30, {3-[(1R,2S,3R)-2-((E)-5-Benzo[b]thiophen-2-yl-3-hydroxy-pent-1-enyl)-3-hydroxymethyl-5-oxo-cyclopentylsulfanyl]-propylsulfanyl}-acetic acid methyl ester]	> 10000	1900
COC(=O)CSCCCS[C@H]1C(=O)CC[C@@H]1/C=C/C(O)CCc1ccc2ccccc2c1 (stereo partly drawn) [drawing 34, {3-[(1R,2R)-2-((E)-3-Hydroxy-5-naphthalen-2-yl-pent-1-enyl)-5-oxo-cyclopentylsulfanyl]-propylsulfanyl}-acetic acid methyl ester]	0.5	300
COC(=O)CSCCCS[C@H]1C(=O)CC[C@@H]1/C=C/C(O)CCc1ccc2ccccc2c1 (stereo partly drawn) [drawing 35, {3-[(1R,2R)-2-((E)-3-Hydroxy-5-naphthalen-2-yl-pent-1-enyl)-5-oxo-cyclopentylsulfanyl]-propylsulfanyl}-acetic acid methyl ester]	0.6	200
O=C(O)CSCCCS[C@H]1C(=O)C[C@@H](CO)[C@@H]1/C=C/C(O)CCc1ccc2ccccc2c1 (stereo partly drawn) [drawing 40, {3-[(1R,2S,3R)-3-Hydroxymethyl-2-((E)-3-hydroxy-5-naphthalen-2-yl-pent-1-enyl)-5-oxo-cyclopentylsulfanyl]-propylsulfanyl}-acetic acid]	465	1000
COC(=O)CSCCCS[C@H]1C(=O)CC[C@@H]1/C=C/C(C)(O)CCc1ccc2ccccc2c1 (stereo partly drawn) [{3-[(1R,2R)-2-((E)-3-Hydroxy-3-methyl-5-naphthalen-2-yl-pent-1-enyl)-5-oxo-cyclopentylsulfanyl]-propylsulfanyl}-acetic acid methyl ester]	46	500

From US7183324B2, “2,3,4-substituted cyclopentanones as therapeutic agents” (Allergan, Inc., priority 2004, dated 2007)
